Measurements from the NIST ThermoML archive (doi:10.1016/j.tca.2013.05.017).
Several values for one entry are separate records, joined by “and”; a condition that tells them apart may be missing. Identical values can stand only once. ± gives the expanded uncertainty stated by the source.

Assay: molar heat capacity at constant pressure
Conditions: 101.33 kPa, Crystal 2, Small (less than 1 g) adiabatic calorimetry

## O=S(=O)([O-])[O-].[Sr+2] [sulfuric acid, strontium salt (1:1)]
145.71 K
  molar heat capacity at constant pressure: 68.41 ± 0.47 J/K/mol
145.74 K
  molar heat capacity at constant pressure: 68.47 ± 0.47 J/K/mol
146.11 K
  molar heat capacity at constant pressure: 68.55 ± 0.47 J/K/mol
148.91 K
  molar heat capacity at constant pressure: 69.29 ± 0.48 J/K/mol
148.95 K
  molar heat capacity at constant pressure: 69.42 ± 0.48 J/K/mol
149.31 K
  molar heat capacity at constant pressure: 69.49 ± 0.48 J/K/mol
150 K
  molar heat capacity at constant pressure: 69.86 ± 0.48 J/K/mol
152.12 K
  molar heat capacity at constant pressure: 70.28 ± 0.48 J/K/mol
152.16 K
  molar heat capacity at constant pressure: 70.25 ± 0.48 J/K/mol
152.52 K
  molar heat capacity at constant pressure: 70.41 ± 0.48 J/K/mol
155.34 K
  molar heat capacity at constant pressure: 71.05 ± 0.48 J/K/mol
155.38 K
  molar heat capacity at constant pressure: 71.08 ± 0.48 J/K/mol
155.74 K
  molar heat capacity at constant pressure: 71.27 ± 0.48 J/K/mol
158.56 K
  molar heat capacity at constant pressure: 71.97 ± 0.49 J/K/mol
158.6 K
  molar heat capacity at constant pressure: 72 ± 0.49 J/K/mol
158.97 K
  molar heat capacity at constant pressure: 72.09 ± 0.49 J/K/mol
160 K
  molar heat capacity at constant pressure: 72.51 ± 0.49 J/K/mol
161.8 K
  molar heat capacity at constant pressure: 72.79 ± 0.49 J/K/mol
161.84 K
  molar heat capacity at constant pressure: 72.83 ± 0.49 J/K/mol
162.22 K
  molar heat capacity at constant pressure: 72.92 ± 0.49 J/K/mol
165.05 K
  molar heat capacity at constant pressure: 73.58 ± 0.49 J/K/mol
165.09 K
  molar heat capacity at constant pressure: 73.59 ± 0.49 J/K/mol
165.46 K
  molar heat capacity at constant pressure: 73.73 ± 0.49 J/K/mol
168.3 K
  molar heat capacity at constant pressure: 74.28 ± 0.5 J/K/mol
168.34 K
  molar heat capacity at constant pressure: 74.31 ± 0.5 J/K/mol
168.72 K
  molar heat capacity at constant pressure: 74.49 ± 0.5 J/K/mol
170 K
  molar heat capacity at constant pressure: 74.99 ± 0.5 J/K/mol
171.55 K
  molar heat capacity at constant pressure: 75.15 ± 0.5 J/K/mol
171.6 K
  molar heat capacity at constant pressure: 75.19 ± 0.5 J/K/mol
171.99 K
  molar heat capacity at constant pressure: 75.27 ± 0.5 J/K/mol
174.82 K
  molar heat capacity at constant pressure: 75.93 ± 0.5 J/K/mol
174.86 K
  molar heat capacity at constant pressure: 75.97 ± 0.5 J/K/mol
175.25 K
  molar heat capacity at constant pressure: 76.02 ± 0.5 J/K/mol
178.09 K
  molar heat capacity at constant pressure: 76.68 ± 0.51 J/K/mol
178.13 K
  molar heat capacity at constant pressure: 76.74 ± 0.51 J/K/mol
178.53 K
  molar heat capacity at constant pressure: 76.77 ± 0.51 J/K/mol
180 K
  molar heat capacity at constant pressure: 77.33 ± 0.51 J/K/mol
181.37 K
  molar heat capacity at constant pressure: 77.42 ± 0.51 J/K/mol
181.41 K
  molar heat capacity at constant pressure: 77.48 ± 0.51 J/K/mol
181.81 K
  molar heat capacity at constant pressure: 77.53 ± 0.51 J/K/mol
184.66 K
  molar heat capacity at constant pressure: 78.14 ± 0.51 J/K/mol
184.69 K
  molar heat capacity at constant pressure: 78.22 ± 0.51 J/K/mol
185.09 K
  molar heat capacity at constant pressure: 78.29 ± 0.51 J/K/mol
187.96 K
  molar heat capacity at constant pressure: 78.91 ± 0.52 J/K/mol
187.99 K
  molar heat capacity at constant pressure: 78.94 ± 0.52 J/K/mol
188.38 K
  molar heat capacity at constant pressure: 78.97 ± 0.52 J/K/mol
190 K
  molar heat capacity at constant pressure: 79.65 ± 0.52 J/K/mol
191.26 K
  molar heat capacity at constant pressure: 79.72 ± 0.52 J/K/mol
191.28 K
  molar heat capacity at constant pressure: 79.71 ± 0.52 J/K/mol
191.67 K
  molar heat capacity at constant pressure: 79.8 ± 0.52 J/K/mol
194.56 K
  molar heat capacity at constant pressure: 80.51 ± 0.52 J/K/mol and 80.47 ± 0.52 J/K/mol
194.96 K
  molar heat capacity at constant pressure: 80.64 ± 0.52 J/K/mol
197.83 K
  molar heat capacity at constant pressure: 81.24 ± 0.53 J/K/mol
197.85 K
  molar heat capacity at constant pressure: 81.22 ± 0.53 J/K/mol
198.25 K
  molar heat capacity at constant pressure: 81.33 ± 0.53 J/K/mol
200 K
  molar heat capacity at constant pressure: 81.87 ± 0.53 J/K/mol
201.09 K
  molar heat capacity at constant pressure: 81.92 ± 0.53 J/K/mol
201.14 K
  molar heat capacity at constant pressure: 81.8 ± 0.53 J/K/mol
201.53 K
  molar heat capacity at constant pressure: 81.9 ± 0.53 J/K/mol
204.35 K
  molar heat capacity at constant pressure: 82.54 ± 0.53 J/K/mol
204.42 K
  molar heat capacity at constant pressure: 82.41 ± 0.53 J/K/mol
204.81 K
  molar heat capacity at constant pressure: 82.55 ± 0.53 J/K/mol
207.6 K
  molar heat capacity at constant pressure: 83.18 ± 0.53 J/K/mol
207.7 K
  molar heat capacity at constant pressure: 82.95 ± 0.53 J/K/mol
208.08 K
  molar heat capacity at constant pressure: 83.16 ± 0.53 J/K/mol
210 K
  molar heat capacity at constant pressure: 83.8 ± 0.54 J/K/mol
210.83 K
  molar heat capacity at constant pressure: 83.81 ± 0.53 J/K/mol
210.94 K
  molar heat capacity at constant pressure: 83.69 ± 0.53 J/K/mol
211.34 K
  molar heat capacity at constant pressure: 83.83 ± 0.53 J/K/mol
214.05 K
  molar heat capacity at constant pressure: 84.44 ± 0.54 J/K/mol
214.18 K
  molar heat capacity at constant pressure: 84.34 ± 0.54 J/K/mol
214.58 K
  molar heat capacity at constant pressure: 84.5 ± 0.54 J/K/mol
217.26 K
  molar heat capacity at constant pressure: 85.04 ± 0.54 J/K/mol
217.41 K
  molar heat capacity at constant pressure: 84.95 ± 0.54 J/K/mol
217.8 K
  molar heat capacity at constant pressure: 85.11 ± 0.54 J/K/mol
220 K
  molar heat capacity at constant pressure: 85.76 ± 0.54 J/K/mol
220.45 K
  molar heat capacity at constant pressure: 85.67 ± 0.54 J/K/mol
220.61 K
  molar heat capacity at constant pressure: 85.61 ± 0.54 J/K/mol
221.01 K
  molar heat capacity at constant pressure: 85.74 ± 0.54 J/K/mol
223.62 K
  molar heat capacity at constant pressure: 86.31 ± 0.55 J/K/mol
223.8 K
  molar heat capacity at constant pressure: 86.22 ± 0.55 J/K/mol
224.21 K
  molar heat capacity at constant pressure: 86.36 ± 0.55 J/K/mol
226.78 K
  molar heat capacity at constant pressure: 86.94 ± 0.55 J/K/mol
226.98 K
  molar heat capacity at constant pressure: 86.85 ± 0.55 J/K/mol
227.39 K
  molar heat capacity at constant pressure: 86.96 ± 0.55 J/K/mol
229.93 K
  molar heat capacity at constant pressure: 87.58 ± 0.55 J/K/mol
230 K
  molar heat capacity at constant pressure: 87.75 ± 0.55 J/K/mol
230.13 K
  molar heat capacity at constant pressure: 87.48 ± 0.55 J/K/mol
230.55 K
  molar heat capacity at constant pressure: 87.57 ± 0.55 J/K/mol
233.05 K
  molar heat capacity at constant pressure: 88.24 ± 0.55 J/K/mol
233.27 K
  molar heat capacity at constant pressure: 88.13 ± 0.55 J/K/mol
233.75 K
  molar heat capacity at constant pressure: 88.27 ± 0.55 J/K/mol
236.17 K
  molar heat capacity at constant pressure: 88.83 ± 0.55 J/K/mol
236.39 K
  molar heat capacity at constant pressure: 88.63 ± 0.55 J/K/mol
236.88 K
  molar heat capacity at constant pressure: 88.89 ± 0.55 J/K/mol
239.32 K
  molar heat capacity at constant pressure: 89.46 ± 0.56 J/K/mol
